Assay [1] relates to HUVEC. As to the kind of experiment: Antiangiogenic activity in human HUVEC cells assessed as angiogenesis rate at 10 uM after 5 hrs by endothelial tube formation assay relative to control. The assay is classed as functional.
Assay [2] concerns Thoracic aorta. As to the kind of experiment: Antiangiogenic activity in Fischer 344 rat thoracic aorta assessed as field of view occupancy at 10 microg/ml after 5 days light microscopic analysis(reference value: 86 %). The assay is classed as functional.
The subject of assay [3] is Thoracic aorta. Kind of assay: Antiangiogenic activity in Fischer 344 rat thoracic aorta assessed as field of view occupancy at 1 microg/ml after 5 days by light microscopic analysis (reference value: 86 %). Type of assay: functional.
Assay [4] has as its system HUVEC. As to the kind of experiment: Antiangiogenic activity in human HUVEC cells assessed as angiogenesis rate at 1 uM after 5 hrs by endothelial tube formation assay relative to control. The assay is classed as functional.
Assay [5] can be described thus: Cytotoxicity against mouse SVEC4-10 cells assessed as cell viability after 24 hrs by MTS assay. Type of assay: cell-based. Conditions: SVEC4-10, 24 h. Background: Formazan colour is commonly taken as a measure of viable cells.

Each structure is given as a SMILES string. The source made the active and inactive calls. The rule behind the calls is not given here.

For the compound `Cc1ccc(C2=Cc3c(C)cc(C)n3C2=O)cc1`, the result with HUVEC [1] was inactive.
For `Cc1cc(C)n2c1C=C(c1ccc(Cl)cc1)C2=O`, the outcome in the assay with HUVEC [1] was inactive.
Still for that read-out and setting: then `Cc1cc(C)n2c1C=C(c1ccccc1F)C2=O`, with “Active”.
On the same count and under the same terms, then `Cc1cc(C)n2c1C=C(c1cccc(Cl)c1)C2=O`, with “inactive”.
For the compound `Cc1cc(C)n2c1C=C(c1ccccc1)C2=O`, in the assay on HUVEC [1], the Activity is listed as 68.4%. Also, the outcome in the assay on Thoracic aorta [2] was Active.
On to `Cc1cc(C)n2c1C=C(c1cccc([N+](=O)[O-])c1)C2=O`, for which the result in the assay with HUVEC [1] was inactive.
For `Cc1cc(C)c(/C=C2\C(=O)Nc3ccccc32)[nH]1` [SEMAXANIB], the results for the Activity with Thoracic aorta [3] and in the assay with Thoracic aorta [2] were 61% and 10%, respectively.
Turning to `Cc1cc(C)n2c1C=C(c1ccccc1Br)C2=O`, in the assay on HUVEC [1], the outcome was Active.
As for `Cc1cc(C)n2c1C=C(c1ccccc1Cl)C2=O`, the outcome in the assay on HUVEC [1] was inactive.
By IC50 is commonly meant the point on the concentration scale where inhibition reaches its midpoint. Regarding `Cc1cc(C)n2c1C=C(c1ccccc1[N+](=O)[O-])C2=O`, the Activity in the assay on HUVEC [4] was found to be 74%; in the assay on HUVEC [1], 29.7%; in the assay on Thoracic aorta [2] it was 4%. Besides, the result in the assay with Thoracic aorta [3] was inactive. Further, the IC50 in assay [5] came out at 32 µM.
With `Cc1cc(C)n2c1C=C(c1cccc(Br)c1)C2=O`, the result with HUVEC [1] was inactive.
Turning to `Cc1cc(C)n2c1C=C(c1cccc(F)c1)C2=O`, the outcome in the assay with HUVEC [1] was inactive.
Same read-out and setting: the same measure for `Cc1cc(C)n2c1C=C(c1ccc([N+](=O)[O-])cc1)C2=O`: “inactive”.
Regarding `CCN(CC)CCNC(=O)c1c(C)[nH]c(/C=C2\C(=O)Nc3ccc(F)cc32)c1C` [SUNITINIB], in the assay with HUVEC [1], the outcome was Active. Moreover, in assay [5], the IC50 came out at 8 µM.
As to `Cc1cccc(C2=Cc3c(C)cc(C)n3C2=O)c1`, in the assay on HUVEC [1], the outcome was inactive.
Same read-out and setting: the same measure for `COc1ccccc1C1=Cc2c(C)cc(C)n2C1=O`: “Active”; for `Cc1ccccc1C1=Cc2c(C)cc(C)n2C1=O`: “Active”.
On the same count and under the same terms, the same measure for `Cc1cc(C)n2c1C=C(c1ccc(F)cc1)C2=O`: “inactive”; for `COc1cccc(C2=Cc3c(C)cc(C)n3C2=O)c1`: “inactive”.
Same read-out and setting: then `Cc1cc(C)n2c1C=C(c1ccc(Br)cc1)C2=O`, with “inactive”.

Values taken from ChEMBL document CHEMBL3784987, “Synthesis and preliminary evaluation of 5,7-dimethyl-2-aryl-3H-pyrrolizin-3-ones as angiogenesis inhibitors” (Bioorg Med Chem Lett, 2016).
